Test results taken from patent publication EP1598418A1, “STABILISED COMPOSITION FOR FLUORIMETRIC, COLORIMETRIC OR CHEMOLUMINESCENT ASSAYS, KITS CONTAINING SAME AND PRODUCTION METHOD THEREOF” (BIOTOOLS BIOTECHNOLOGICAL & MEDICAL LABORATORIES, S.A., priority 2003, dated 2004).

Assays:
TaqMan probes = assay: Real-time amplification with desiccated, stabilised reaction mixture with TaqMan probes after storage (Example 2); format: biochemical, P. falciparum; details: vs fresh mixture
[1] = tested on: Molecular Beacon (MB) probe; assay: Real-time amplification with desiccated, stabilised reaction mixture with Molecular Beacon probe after storage (Example 3); format: biochemical, P. falciparum; details: vs fresh mixture
[2] = tested on: nucleic acids immobilised in ELISA microplates; assay: Amplification and colorimetric detection with stabilised nucleic acids immobilised in ELISA microplates (Example 10.1); details: vs fresh mixture
antidigoxygenin antibody = assay: Colorimetry assay of stabilised protein immobilised in ELISA microplates (Example 10.2); format: biochemical, HPV; details: vs fresh mixture
Method: To do so each dimple was incubated with 1µg of antidigoxygenin antibody (Roche).
The amplified product was incubated for 30 minutes in the dimples with the antibody immobilised. The amplified products immobilised in the plate by the union of the digoxygenin group of the amplicons and the immobilised anti-digoxygenin group were analysed by a colorimetric assay. […] The colorimetric reaction was finally analysed by measuring absorption at 415 nm.

[3] = tested on: Anti-digoxygenin antibodies; assay: Colorimetric assay of stabilised proteins immobilised in modified glasses (Example 10.4); format: biochemical, P. falciparum; details: vs fresh mixture
Method: To test the possibility of stabilising proteins that have been previously immobilised in pre-treated glass supports, the usual format of microarray systems, two different alternatives were tested as in the previous experiment.
Approach 1. Stabilisation of supports with previously fixed protein. Anti-digoxygenin antibodies were fixed to glass supports pre-treated with aldehyde. To do so, in each support slide 1 microlitre spots were applied of the solution of each protein at a concentration of 30 ng/µl. The slides with the immobilised protein were then coated with a thin layer of each of the stabilising mixtures and then desiccated in a vacuum oven at 25°C and 50 mbar pressure.
Approach 2. Fixation to the slides of the protein pre-mixed with the stabilising mixtures. A mixture was prepared of each of the probes with the suitable volumes of the stabilising mixtures described in Table 1. Then the mixtures of protein were applied to the various slides with the fixing conditions indicated for each glass format.
To test the viability of each slide prepared, a colorimetric assay was performed with formation of precipitate products. To do so, the slides were washed for 5 minutes in PBS 1X at room temperature to eliminate the protective layer.

[4] = tested on: probes marked with biotin or digoxygenin groups; assay: Synthesis of digoxygenin-marked probes with desiccated mixtures and molecular hybridisation test (Example 9); details: vs fresh mixture
[5] = tested on: streptoavidin conjugated with HRP (Str-HRP) and anti-digoxygenin conjugated with alkaline phospatase (anti-DIG-AP); assay: Colorimetric ELISA plate activity test of desiccated, stabilised conjugates (Example 8); format: biochemical, HPV 16; details: conserved at T 25 °C, vs fresh mixture
Method: In 0.2 ml amplification tubes were added 100 microlitres of a 1/250 dilution in a blocking solution of the conjugate Str-HRP (Biospa). In parallel, 0.2 ml phials were prepared in which 100 microlitres were added of a 1/250 dilution in a blocking solution of anti-DIG-AP (Sigma).
For the activity assay of the conjugate anti-DIG-AP an ELISA plate was used in which the dimples had been previously coated with streptoavidin. For the activity assay of conjugate Str-HRP a plate was used instead with dimples previously coated with anti-DIG antibodies. The amplified products were incubated in each plate to allow the immobilisation of the amplicons in the plate.

[6] = tested on: oligonucleotides chemically modified by including biotin and/or digoxygenin groups; assay: Amplification with desiccated biotin/digoxygenin oligonucleotides and colorimetric ELISA plate assay (Example 7); format: biochemical, oncogenic HPV; details: vs fresh mixture
Method: To do so, 4 oligonucleotides were designed that hybridised with the genome of region E6-E7 of oncogenic HPV species.
To do so, an ELISA microplate with a high-binding capacity to streptoavidin (Biospa) was activated following a standard fixing protocol. Then, after blocking the plate by incubation with gelatine, the amplified products of the stabilising mixtures 1, 2 and 3 described in Example 7.A were analysed by a colorimetry assay according to the following experimental process: • A.- Amplification products using an onligonucleotide marked with digoxygenin (mixture 1 in Example 7.A). The biotinated probe A11 was fixed to the plate and the amplified product was hybridised. […] The amplification product was fixed to the plate with the first biotinilate and then hybridised with the first A12 marked with digoxygenin.

[7] = tested on: nucleic acids immobilised in modified glasses; assay: Colorimetric assay of stabilised nucleic acids immobilised in modified glasses (Example 10.3); format: biochemical, HPV 16; details: vs fresh mixture
Method: Approach 1. Stabilisation of supports with previously fixed nucleic acids. HPV specific probes were fixed to glass supports pre-treated with polylysiun, aldehyde, epoxy, superepoxy and silane. To do so, in each support slide 1 microlitre spots were applied of the solution of each oligonucleotide at a concentration of 20 µM in the conditions indicated for each glass format. The slides with the immobilised oligonucleotides were then coated with a thin layer of each of the stabilising mixtures and then desiccated in a vacuum oven at 25°C and 50 mbar pressure.
Approach 2. Fixation to the slides of the nucleic acids pre-mixed with the stabilising mixtures. A mixture was prepared of each of the probes with the suitable volumes of the stabilising mixtures described in Table 1. Then the mixtures of oligonucleotides were applied to the various slides with the fixing conditions indicated for each glass format.
To test the viability of each slide prepared, a colorimetric assay was performed with formation of precipitate products. To do so, the slides were washed for 5 minutes in PBS 1X at room temperature to eliminate the protective layer. Then the slides were incubated in the presence of an amplified and previously denatured HPV 16 product using the probes A11 and A12.

[8] = tested on: reaction mixture with SYBR Green; assay: Real-time amplification with desiccated, stabilised reaction mixture with SYBR Green after storage (Example 5); format: biochemical, oncogenic papillomaviruses; details: conserved at T 25 °C, vs fresh mixture
Method: To test the efficiency of intercalated fluorophores such as SYBR Green included in desiccated and stabilised reaction mixtures, reaction mixtures were prepared for amplifying a 250 bp fragment corresponding to region E6-E7 of oncogenic papillomaviruses, using the same reagents as described in Example 1. In this case the unit "DNA Engine OPTICON™ 2 System" (MJ Research) was used. […] Also to each phial was added […] of SYBR Green 1 (Molecular probes).
Various tubes were prepared as described above, adding to each the suitable volume of each stabilising mixture shown in Table 1.
In parallel, in order to check the evolution of the activity of the desiccated tubes, DNA samples were amplified using a fresh mixture in the same amplification conditions.
The result of the amplification reaction was analysed in every case by inspecting the fluorescence curve and determining the crossing point, following the instructions of the equipment software, for each reaction tube both fresh and desiccated and stabilised. […] The samples of patients infected with oncogenic HPV gave positive results in every case, while patients infected with non-oncogenic HPV, or not infected with HPV, gave negative results in every case.

FRET probes = assay: Real-time amplification with desiccated, stabilised reaction mixture with FRET probes after storage (Example 1); format: biochemical, P. falciparum; details: vs fresh mixture
[9] = tested on: DTCS Quick Start Master Mix; assay: Sequencing reaction with desiccated, stabilised mixture with fluorescent terminators after storage (Example 6); format: biochemical, human papillomavirus; details: vs fresh mixture
Method: To test the possibility of gelling reaction mixtures for sequencing nucleic acids the CEQ 200 Dye Terminator Cycle Sequencing (DTCS) Quick Start Kit (Beckman Coulter) was employed, which uses a PCR sequencing system in a single tube by incorporating four different fluorescent terminators. The sequencing reactions were later analysed in a CEQ 2000 XL DNA Analysis System (Beckman Coulter) capillary electrophoresis automatic sequencing system.
Reaction mixtures were prepared containing 4 microlitres of DTCS Quick Start Master Mix, 1 microlitre of universal primer M13-17 and the suitable volume of each stabilising mixture shown in Table 1.
In parallel, in order to check the evolution of the activity of the desiccated and stabilised tubes, the same plasmid was sequenced using a fresh sequencing mixture in standard conditions. Finally, the sequencing reactions were analysed in the CEQ 200XL system following the supplier's instructions.

Scorpion probes = assay: Real-time amplification with desiccated, stabilised reaction mixture with Scorpion probes after storage (Example 4); format: biochemical, M. tuberculosis; details: conserved at T 25 °C, vs fresh mixture
avidin = avidin (Gallus gallus, UniProt P02701); details: avidin/biotin complex; cited from earlier work
avidin, sequence (P02701 25-152): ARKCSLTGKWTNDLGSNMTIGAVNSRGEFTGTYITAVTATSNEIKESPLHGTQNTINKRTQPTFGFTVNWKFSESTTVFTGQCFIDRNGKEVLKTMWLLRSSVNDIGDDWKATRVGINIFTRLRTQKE

With OC[C@H]1O[C@H](O[C@H]2O[C@H](CO)[C@@H](O)[C@H](O)[C@H]2O)[C@H](O)[C@@H](O)[C@@H]1O [Trehalose] the “activity of stabilising mixtures” value (TaqMan probes; conserved at T 4 °C) was “++ (++, positive with 50-90% of the activity of the fresh mixture)”, the “activity of stabilising mixtures” value (TaqMan probes; conserved at T 25 °C) was “+ (+, weak positive, under 50% of the activity of the fresh mixture)” and the “activity of stabilising mixtures” value ([1]; conserved at T 4 °C) was “++ (++, positive with 50-90% of the activity of the fresh mixture)”. For the same molecule, the “activity of stabilising mixtures” value ([1]; conserved at T 25 °C) was “+ (+, weak positive, under 50% of the activity of the fresh mixture)”, the “activity of stabilising mixtures” value ([2]; conserved at T 4 °C) was “++ (++, positive with 50-90% of the activity of the fresh mixture)” and the “activity of stabilising mixtures” value ([2]; conserved at T 25 °C) was “+ (+, weak positive, under 50% of the activity of the fresh mixture)”. The “activity of stabilising mixtures” value (antidigoxygenin antibody; conserved at T 4 °C) was “++ (++, positive with 50-90% of the activity of the fresh mixture)”, the “activity of stabilising mixtures” value (antidigoxygenin antibody; conserved at T 25 °C) was “+ (+, weak positive, under 50% of the activity of the fresh mixture)” and the “activity of stabilising mixtures” value ([3]; conserved at T 4 °C) was “++ (++, positive with 50-90% of the activity of the fresh mixture)”. For the same molecule, the “activity of stabilising mixtures” value ([3]; conserved at T 25 °C) was “+ (+, weak positive, under 50% of the activity of the fresh mixture)”, the “activity of stabilising mixtures” value ([4]; conserved at T 4 °C) was “++ (++, positive with 50-90% of the activity of the fresh mixture)” and the “activity of stabilising mixtures” value ([4]; conserved at T 25 °C) was “+ (+, weak positive, under 50% of the activity of the fresh mixture)”. The “activity of stabilising mixtures” value [5] was “+ (+, weak positive, under 50% of the activity of the fresh mixture)”, the “activity of stabilising mixtures” value ([6]; conserved at T 4 °C) was “++ (++, positive with 50-90% of the activity of the fresh mixture)” and the “activity of stabilising mixtures” value ([6]; conserved at T 25 °C) was “+ (+, weak positive, under 50% of the activity of the fresh mixture)”. For the same molecule, the “activity of stabilising mixtures” value ([7]; conserved at T 4 °C) was “++ (++, positive with 50-90% of the activity of the fresh mixture)”, the “activity of stabilising mixtures” value ([7]; conserved at T 25 °C) was “+ (+, weak positive, under 50% of the activity of the fresh mixture)” and the “activity of stabilising mixtures” value [8] was “+ (+, weak positive, under 50% of the activity of the fresh mixture)”. The “activity of stabilising mixtures” value (FRET probes; conserved at T 4 °C) was “++ (++, positive with 50-90% of the activity of the fresh mixture)”, the “activity of stabilising mixtures” value (FRET probes; conserved at T 25 °C) was “+ (+, weak positive, under 50% of the activity of the fresh mixture)” and the “activity of stabilising mixtures” value ([9]; conserved at T 4 °C) was “++ (++, positive with 50-90% of the activity of the fresh mixture)”. The “activity of stabilising mixtures” value ([9]; conserved at T 25 °C) was “+ (+, weak positive, under 50% of the activity of the fresh mixture)” and the “activity of stabilising mixtures” value (Scorpion probes) was “+ (+, weak positive, under 50% of the activity of the fresh mixture)”.

In the case of O=C(O)CCCC[C@@H]1SC[C@@H]2NC(=O)N[C@@H]21 [biotin, Biotin], the dissociation energy (avidin) is given as 21 kcal/mol.
